# Test results as given in US20220388990A1, “INHIBITORS OF CYCLIN-DEPENDENT KINASES” (Kinnate Biopharma Inc., priority 2019, published 2022).
# Where a name gives a salt, the structure may show the parent alone.
# Target: T1, CDK12 (Homo sapiens, UniProt Q9NYV4)
# T1 construct: ProQinase (named as the party running the assay)
# Assay: Radiometric protein kinase assay (33PanQinase), assay condition 1, thiol-free conditions
# Type: biochemical
# Settings: thiol-free conditions (1 mM TCEP), ATP at apparent Km
# Description: Example 2 —Assay condition 1 (thiol-free conditions)
# The IC50 profile of compounds was determined using protein kinase in a customized, thiol free assay. IC50 values were measured by testing 10 concentrations (1×10^−05 M to 3×10^−10 M) of each test compound in singlicate against each kinase of interest. Prior to testing, the 1×10^−03M stock solutions in column 2 of the master plates were subjected to a serial, semi-logarithmic dilution using 100% DMSO as a solvent. […] Column 1 and 7 were filled with 100% DMSO as controls. Subsequently, 2×10 microliter from each well of the serial diluted copy plates were aliquoted with a 96 channel pipettor into two identical sets of “compound dilution plates”. All plates were barcoded for automated identification and tracking purposes. IC50 values were measured by testing 10 concentrations (1×10^−05 M to 3×10^−10 M) of each compound in singlicate. All compounds were stored as powder until being solubilized in DMSO. Solubilized compounds were stored as 1×10^−02 M/100% DMSO stock solutions. Prior to the assay process, 90 microliters of H2O were added to each well of a set of compound dilution plates. To minimize potential precipitation, the H2O was added to each plate only a few minutes before the transfer of the compound solutions into the assay plates. Each plate was shaken thoroughly, resulting in compound dilution plates with a final of 10% DMSO. For each assay, 5 microliters of solution from each well of the compound dilution plates/10% DMSO were transferred into the assay plate. The final volume of the assay was 50 μl. All compounds were tested at 10 final assay concentrations in the range from 1×10^−05 M to 3×10^−10 M, in singlicate. The final DMSO concentration in the reaction cocktails was 1% in all cases. A radiometric protein kinase assay (33PanQinase® Activity Assay) was used for measuring the kinase activity of the protein kinase. All kinase assays were performed in 96-well FlashPlates™ from PerkinElmer (Boston, Mass., USA) in a 50 microliter reaction volume. The reaction cocktail was pipetted in four steps in the following order: 20 microliter of assay buffer (standard buffer) 5 microliter of ATP solution (in H2O) 5 microliter of test compound (in 10% DMSO) 20 microliter enzyme/subtrate mix. Each assay for the protein kinase contained 70 mM HEPES-NaOH pH 7.5, 3 mM MgCl2, 3 mM MnCl2, 3 microM Na-orthovanadate, 1 mM TCEP, 50 μg/ml PEG20000, ATP (corresponding to the apparent ATP-Km of the kinase, see Table A), [gamma-33P]-ATP (approx. 6×10×E5 cpm per well), with the protein kinase and relevant substrate being used in pre-determined amounts, depending on the kinase in question. For all experiments labeled as “Thiol-free”, all glutathione was exchanged from protein preparations so as to be removed from the assay and final buffer conditions contained no thiol- containing reagents. This was done so there would be no interference with the key cysteines in the proteins of interest.
# For data analysis, the median value of the counts in column 1 (n=8) of each assay plate was defined as “low control”. This value reflects unspecific binding of radioactivity to the plate in the absence of a protein kinase but in the presence of the substrate. The median value of the counts in column 7 of each assay plate (n=8) was taken as the “high control”, i.e. full activity in the absence of any inhibitor. The difference between high and low control was taken as 100% activity. As part of the data evaluation the low control value from a particular plate was subtracted from the high control value as well as from all 80 “compound values” of the corresponding plate. The residual activity (in %) for each well of a particular plate was calculated by using the following formula:
# Res. Activity (%)=100×[(cpm of compound−low control)/(high control−low control)] […]
# T1 sequence (Q9NYV4 whole entry): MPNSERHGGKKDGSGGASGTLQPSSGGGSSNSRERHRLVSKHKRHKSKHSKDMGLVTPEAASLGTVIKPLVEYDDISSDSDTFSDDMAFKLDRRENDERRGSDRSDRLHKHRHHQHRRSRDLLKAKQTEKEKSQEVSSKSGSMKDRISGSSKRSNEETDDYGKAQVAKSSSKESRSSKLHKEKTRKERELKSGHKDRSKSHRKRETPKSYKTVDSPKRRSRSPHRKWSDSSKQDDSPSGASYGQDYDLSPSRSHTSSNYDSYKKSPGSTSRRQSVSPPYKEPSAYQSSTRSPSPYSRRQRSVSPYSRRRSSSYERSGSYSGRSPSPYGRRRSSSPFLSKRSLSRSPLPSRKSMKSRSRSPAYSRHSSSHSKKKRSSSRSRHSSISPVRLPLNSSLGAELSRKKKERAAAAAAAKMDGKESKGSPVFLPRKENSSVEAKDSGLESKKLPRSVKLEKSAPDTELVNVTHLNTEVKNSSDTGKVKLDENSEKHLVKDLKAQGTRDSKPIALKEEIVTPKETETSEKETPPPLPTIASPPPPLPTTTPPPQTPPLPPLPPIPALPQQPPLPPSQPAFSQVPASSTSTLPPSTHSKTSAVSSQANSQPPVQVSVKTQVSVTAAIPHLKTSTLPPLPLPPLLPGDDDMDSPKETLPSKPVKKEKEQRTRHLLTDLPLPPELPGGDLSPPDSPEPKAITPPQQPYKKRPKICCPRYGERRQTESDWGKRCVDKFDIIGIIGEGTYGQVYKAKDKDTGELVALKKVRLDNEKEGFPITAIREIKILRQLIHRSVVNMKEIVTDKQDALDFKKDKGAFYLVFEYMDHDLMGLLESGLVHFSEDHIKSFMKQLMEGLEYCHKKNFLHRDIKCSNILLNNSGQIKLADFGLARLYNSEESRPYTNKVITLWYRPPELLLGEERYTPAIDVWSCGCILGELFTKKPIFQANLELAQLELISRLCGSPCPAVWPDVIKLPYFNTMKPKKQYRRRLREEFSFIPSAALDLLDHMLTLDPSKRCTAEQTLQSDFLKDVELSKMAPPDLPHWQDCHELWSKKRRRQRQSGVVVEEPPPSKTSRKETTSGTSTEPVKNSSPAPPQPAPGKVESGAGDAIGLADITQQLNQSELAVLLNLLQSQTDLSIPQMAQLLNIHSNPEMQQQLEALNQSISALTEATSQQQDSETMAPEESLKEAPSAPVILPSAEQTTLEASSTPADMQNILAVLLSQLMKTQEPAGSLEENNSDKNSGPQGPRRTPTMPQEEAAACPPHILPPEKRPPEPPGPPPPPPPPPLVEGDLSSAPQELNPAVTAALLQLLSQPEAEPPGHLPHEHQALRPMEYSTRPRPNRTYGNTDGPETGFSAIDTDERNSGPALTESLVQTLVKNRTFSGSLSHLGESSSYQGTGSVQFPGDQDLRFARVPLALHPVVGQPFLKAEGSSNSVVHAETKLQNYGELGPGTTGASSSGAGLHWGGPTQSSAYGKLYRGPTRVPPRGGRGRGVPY
# T1 sequence (O75909 whole entry partner): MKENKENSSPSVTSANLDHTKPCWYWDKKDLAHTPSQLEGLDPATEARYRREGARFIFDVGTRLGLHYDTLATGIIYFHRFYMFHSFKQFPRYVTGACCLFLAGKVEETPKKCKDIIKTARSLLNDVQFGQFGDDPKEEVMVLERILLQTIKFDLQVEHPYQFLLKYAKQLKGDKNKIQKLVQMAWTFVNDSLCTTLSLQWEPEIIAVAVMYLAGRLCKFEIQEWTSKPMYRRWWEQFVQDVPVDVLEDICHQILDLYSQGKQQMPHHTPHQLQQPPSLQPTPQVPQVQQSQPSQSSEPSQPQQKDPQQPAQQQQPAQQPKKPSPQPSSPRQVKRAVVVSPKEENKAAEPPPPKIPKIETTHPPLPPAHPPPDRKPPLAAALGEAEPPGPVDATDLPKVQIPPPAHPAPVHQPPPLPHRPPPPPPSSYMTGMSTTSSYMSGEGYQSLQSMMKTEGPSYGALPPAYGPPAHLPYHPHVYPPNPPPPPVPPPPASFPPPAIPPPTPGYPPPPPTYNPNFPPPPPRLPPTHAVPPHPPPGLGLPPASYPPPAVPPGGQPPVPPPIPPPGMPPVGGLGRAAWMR
row,IC50,SMILES
1,100 to 1000 nM,"C=CC(=O)Nc1ccc2c(N3CC[C@@H](Nc4ncc(C#N)cn4)C3)nc(N3CCOCC3)nc2c1 [Example 22, (R)-N-(4-(3-((5-cyanopyrimidin-2-yl)amino)pyrrolidin-1-yl)-2-morpholinoquinazolin-7-yl)acrylamide]"
2,≤ 100 nM,"C=CC(=O)Nc1ccc2c(N3CC[C@@H](Nc4cc5c(cn4)cnn5CC)C3)ncnc2c1 [Example 34, (R)—N-(4-(3-((1-ethyl-1H-pyrazolo[4,3-c]pyridin-6-yl)amino)pyrrolidin-1-yl)quinazolin-7-yl)acrylamide]"
3,≤ 100 nM,"C/C=C/C(=O)Nc1ccc2c(N3CC[C@@H](Nc4ncc(Br)cn4)C3)nccc2c1 [Example 28, (R,E)-N-(1-(3-((5-bromopyrimidin-2-yl)amino)pyrrolidin-1-yl)isoquinolin-6-yl)but-2-enamide]"
4,≤ 100 nM,"C#Cc1cnc(N[C@@H]2CCN(c3nccc4cc(NC(=O)C=C)ccc34)C2)nc1 [Example 48, (R)—N-(1-(3-((5-ethynylpyrimidin-2-yl)amino)pyrrolidin-1-yl)isoquinolin-6-yl)acrylamide]"
5,≤ 100 nM,"C#Cc1cnc(N[C@@H]2CCN(c3nncc4cc(NC(=O)C=C)ccc34)C2)nc1 [Example 51, (R)—N-(1-(3-((5-ethynylpyrimidin-2-yl)amino)pyrrolidin-1-yl)phthalazin-6-yl)acrylamide formate]"
6,≤ 100 nM,"C=CC(=O)Nc1ccc2c(N3CC[C@@H](Nc4ncc(C#N)cn4)C3)nc(C)nc2c1 [Example 30, (R)—N-(4-(3-((5-cyanopyrimidin-2-yl)amino)pyrrolidin-1-yl)-2-methylquinazolin-7-yl)acrylamide]"
7,≤ 100 nM,"C=CC(=O)Nc1ccc2c(N3CC[C@@H](Nc4ncc(C#N)cn4)C3)nc(N3CCN(C)CC3)nc2c1 [Example 24, (R)-N-(4-(3-((5-cyanopyrimidin-2-yl)amino)pyrrolidin-1-yl)-2-(4-methylpiperazin-1-yl)quinazolin-7-yl)acrylamide]"
8,≤ 100 nM,"C=CC(=O)Nc1ccc2c(N3CC[C@@H](Nc4ncc(Br)cn4)C3)nncc2c1 [Example 50, (R)—N-(1-(3-((5-bromopyrimidin-2-yl)amino)pyrrolidin-1-yl)phthalazin-6-yl)acrylamide]"
9,≤ 100 nM,"C=CC(=O)N(C)c1ccc2c(N3CC[C@@H](Nc4ncc(Br)cn4)C3)nccc2c1 [Example 27, (R)-N-(1-(3-((5-bromopyrimidin-2-yl)amino)pyrrolidin-1-yl)isoquinolin-6-yl)-N-methylacrylamide]"
10,≤ 100 nM,"C=CC(=O)Nc1ccc2c(N3CC[C@@H](Nc4ncc(C#N)cn4)C3)nc(N)nc2c1 [Example 31, (R)—N-(2-amino-4-(3-((5-cyanopyrimidin-2-yl)amino)pyrrolidin-1-yl)quinazolin-7-yl)acrylamide]"
11,100 to 1000 nM,"C=CC(=O)Nc1ccc2c(N3CC[C@@H](Nc4ncc(C#N)cn4)C3)nc(N3CCCC3)nc2c1 [Example 29, (R)—N-(4-(3-((5-cyanopyrimidin-2-yl)amino)pyrrolidin-1-yl)-2-(pyrrolidin-1-yl)quinazolin-7-yl)acrylamide]"
12,≤ 100 nM,"C=CC(=O)Nc1ccc2c(N3CC[C@@H](Nc4ncc(C#N)cn4)C3)nnc(N3CC(C#N)C3)c2c1 [Example 54, (R)—N-(4-(3-cyanoazetidin-1-yl)-1-(3-((5-cyanopyrimidin-2-yl)amino)pyrrolidin-1-yl)phthalazin-6-yl)acrylamide]"
13,≤ 100 nM,"C=CC(=O)Nc1ccc2c(N3CC[C@@H](Nc4ncc(C#N)cn4)C3)nnc(N3CCC3)c2c1 [Example 45, (R)—N-(4-(azetidin-1-yl)-1-(3-((5-cyanopyrimidin-2-yl)amino)pyrrolidin-1-yl)phthalazin-6-yl)acrylamide formate]"

# Second part, the compound before the results:
row,SMILES,IC50
1,"C=CC(=O)Nc1ccc2c(N3CC[C@@H](Nc4ncc5cc(F)ccc5n4)C3)ncnc2c1 [Example 8, (R)-N-(4-(3-((6-fluoroquinazolin-2-yl)amino)pyrrolidin-1-yl)quinazolin-7-yl)acrylamide]",≤ 100 nM
2,"C=CC(=O)Nc1ccc2c(N3CC[C@@H](Nc4ncc(Cl)cn4)C3)ncnc2c1 [Example 1, (R)-N-(4-(3-((5-chloropyrimidin-2-yl)amino)pyrrolidin-1-yl)quinazolin-7-yl)acrylamide]",100 to 1000 nM
3,"C=CC(=O)Nc1ccc2c(N3CC[C@@H](Nc4ncc5sccc5n4)C3)ncnc2c1 [Example 11, (R)-N-(4-(3-(thieno [3,2-d]pyrimidin-2-ylamino)pyrrolidin-1-yl)quinazolin-7-yl)acrylamide]",≤ 100 nM
4,"C=CC(=O)Nc1ccc2c(N3CC[C@@H](Nc4ncc(C#N)cn4)C3)ncnc2c1 [Example 12, (R)-N-(4-(3-((5-cyanopyrimidin-2-yl)amino)pyrrolidin-1-yl)quinazolin-7-yl)acrylamide]",≤ 100 nM
5,"C=CC(=O)Nc1ccc2c(N3CC[C@@H](Nc4ncc5ccccc5n4)C3)ncnc2c1 [Example 13, (R)-N-(4-(3-(quinazolin-2-ylamino)pyrrolidin-1-yl)quinazolin-7-yl)acrylamide]",≤ 100 nM
6,"C=CC(=O)Nc1ccc2c(N3CC[C@@H](Nc4ncc(C(F)(F)F)c(N)n4)C3)ncnc2c1 [Example 6, (R)-N-(4-(3-((4-amino-5-(trifluoromethyl)pyrimidin-2-yl)amino)pyrrolidin-1-yl)quinazolin-7-yl)acrylamide]",≤ 100 nM
7,"C=CC(=O)Nc1ccc2c(N3CC[C@@H](Nc4ncc(Cl)c(Oc5ccccc5)n4)C3)ncnc2c1 [Example 7, (R)-N-(4-(3-((5-chloro-4-phenoxypyrimidin-2-yl)amino)pyrrolidin-1-yl)quinazolin-7-yl)acrylamide]",100 to 1000 nM
8,"C=CC(=O)Nc1ccc2c(N3CC[C@@H](Nc4ncc(Cl)c(NC)n4)C3)ncnc2c1 [Example 14, (R)-N-(4-(3-((5-chloro-4-(methylamino)pyrimidin-2-yl)amino)pyrrolidin-1-yl)quinazolin-7-yl)acrylamide]",≤ 100 nM
9,"C=CC(=O)Nc1ccc2c(N3CC[C@@H](Nc4ncc(C(F)(F)F)c(NC)n4)C3)ncnc2c1 [Example 15, (R)-N-(4-(3-((4-(methylamino)-5-(trifluoromethyl)pyrimidin-2-yl)amino)pyrrolidin-1-yl)quinazolin-7-yl)acrylamide]",≤ 100 nM
10,"C=CC(=O)Nc1ccc2c(N3CC[C@@H](Nc4ncc(Br)cn4)C3)nccc2c1 [Example 18, (R)-N-(1-(3-((5-bromopyrimidin-2-yl)amino)pyrrolidin-1-yl)isoquinolin-6-yl)acrylamide]",≤ 100 nM
11,"C=CC(=O)Nc1ccc2c(N3CC[C@@H](Nc4ncc(Br)cn4)C3)nc(N3CCOCC3)nc2c1 [Example 20, (R)-N-(4-(3-((5-bromopyrimidin-2-yl)amino)pyrrolidin-1-yl)-2-morpholinoquinazolin-7-yl)acrylamide]",≤ 100 nM
12,"C=CC(=O)Nc1ccc2c(N3CC[C@@H](Nc4ncc(Cl)c(OCC)n4)C3)ncnc2c1 [Example 3, (R)-N-(4-(3-((5-chloro-4-ethoxypyrimidin-2-yl)amino)pyrrolidin-1-yl)quinazolin-7-yl)acrylamide]",≤ 100 nM
13,"C=CC(=O)Nc1ccc2c(N3CC[C@@H](Nc4ncc(Cl)c(OC)n4)C3)ncnc2c1 [Example 4, (R)-N-(4-(3-((5-chloro-4-methoxypyrimidin-2-yl)amino)pyrrolidin-1-yl)quinazolin-7-yl)acrylamide]",≤ 100 nM
14,"C=CC(=O)Nc1ccc2c(N3CC[C@@H](Nc4ncc(Br)c(OC)n4)C3)ncnc2c1 [Example 5, (R)-N-(4-(3-((5-bromo-4-methoxypyrimidin-2-yl)amino)pyrrolidin-1-yl)quinazolin-7-yl)acrylamide]",≤ 100 nM
15,"C=CC(=O)Nc1ccc2c(N3CC[C@@H](Nc4ncc(Cl)c(OCC)n4)C3)nccc2c1 [Example 19, (R)-N-(1-(3-((5-chloro-4-ethoxypyrimidin-2-yl)amino)pyrrolidin-1-yl)isoquinolin-6-yl)acrylamide]",≤ 100 nM
